{
  "source": "patent US11980648B2",
  "about": "“Compositions including ginsenoside 20(S)-Rg3 and methods of using ginsenoside 20(S)-Rg3 to inhibit alpha herpesvirus” (MIDDLE TENNESSEE STATE UNIVERSITY, priority 2020, dated 2024)",
  "test_system": "Vero cells",
  "assay": "Cytotoxicity on Vero cells (PrestoBlue)",
  "assay_type": "cell-based",
  "conditions": "for Percent Cell Death: African green monkey, 48 h",
  "protocol": "Cells. Vero cells (American Type Culture Collection (ATCC), Manassas, VA, CCL-81) were maintained in medium 199 (Sigma Chemical Company, St. Louis, MO) that was supplemented with 8% fetal bovine serum (Invitrogen, Carlsbad, CA), 1.25 μg/mL fungizone (Invitrogen, Carlsbad, CA) and penicillin-streptomycin, 1000 U/mL and 1 mg/mL respectively (Sigma Chemical Company, St. Louis, MO). Cells were passed weekly using 0.1% trypsin (Sigma Chemical Company, St. Louis, MO) to detach the cells from the flasks. Cell quantification was done by trypan blue exclusion.\nCytotoxicity and Virus Inhibition. All ginsenosides, isomers, and protopanaxadiols were evaluated for toxic effects on Vero cells prior to anti-viral testing. Cells were seeded at 5000 cells/well in a black 96-well plate with clear bottom in a volume of 100 μL and allowed to attach for 24 hours. […] Each dilution was tested in three wells and all assays were repeated three times. Following a 48 hour-incubation at 37° C. in 5% CO2, 11 μL of PrestoBlue (Invitrogen, Carlsbad, Calif.) was added to each well and the plate was incubated for an additional 30 minutes. PrestoBlue determines cell viability by changing from blue to red as resazurin is reduced to resorufin by viable cells. Following the PrestoBlue incubation, fluorescence was determined by spectrophotometric reading using Soft Max Pro (Molecular Diagnostics, San Jose, Calif., USA).\nFor cytotoxicity testing, 4 μL of dilutions of the ginsenosides or protopanaxadiols were added to 396 μL of medium 199 and 100 μL of this mixture was added to each of three wells. For anti-viral testing, 4 μL of the non-toxic reagent and 4 μL of HSV-1 or HSV-2 diluted to an MOI of 0.1 were added to 392 μL of medium 199 and 100 μL of this mixture was added to each of three wells. Virus inhibition was determined by comparing the cell death of reagent-exposed cells with cell death of control cells only receiving virus. The 50% inhibitory concentration (IC50) was determined through a series of two-fold dilutions and calculation by linear regression analysis.",
  "note": "Marks after values point to notes of the source that are not given here.",
  "data": [
    {"compound": "CC(C)=CCC[C@](C)(O)C1CC[C@]2(C)C1[C@H](O)CC1[C@@]3(C)CC[C@H](O[C@@H]4OC(CO)[C@@H](O)[C@@H](O)C4O[C@@H]4OC(CO)[C@@H](O)[C@@H](O)C4O)C(C)(C)C3CC[C@]12C", "note": "(stereo partly drawn) [20(S)-Rg3, 20(S)-ginsenoside-Rg3]", "values": [
      {"measurement": "Percent Cell Death", "setting": "50 μM", "value": "(13.0 ± 3.1) %"},
      {"measurement": "Percent Cell Death", "setting": "100 μM", "value": "(14.3 ± 4.5) %"},
      {"measurement": "Percent Cell Death", "setting": "125 μM", "value": "(22.3 ± 1.8) %"},
      {"measurement": "Percent Cell Death", "setting": "250 μM", "value": "(28.7 ± 1.4) ^1) %"},
      {"measurement": "IC50", "setting": "Chlorocebus sabaeus, Vero, read-out: IC50 against the host Vero cells (toxicity)", "value": "~400", "unit": "µM"}
    ]}
  ]
}
